Assay results published in patent EP1285918A1, “C7 Ester substituted taxanes as antitumor agents” (Florida State University Research Foundation, Inc., priority 2001, dated 2003).
Like-named read-outs stand apart in the source and are kept apart here.

Columns and labels:
[1] = test system: A375 Human Melanoma Xenograft; conditions: 10 mice/group, study end Day 60
Method: Female nu/nu mice (6-8 weeks of age; implanted subcutaneously with 1 mm^3 A375 melanoma fragments in the flank) were sorted into one control and four treatment groups of ten mice each (group mean tumor size of 96-98 mg). […] The study was terminated on Day 60.
(§1) The mean days of survival is the number of days after which a neoplasm reached a size of 2.0 g and the animal was euthanized. A complete response is obtained if the tumor is not palpable at the end of the study. A partial response is obtained if the tumor shrinks to a size smaller than its size on Day 1 of the study.

[2] = test system: NCI-H1299 (H1299) carcinoma; conditions: i.v. split dose qd x 1 at MTD (Taxol 36 mg/kg, 1393 72.1 mg/kg), 6 mice/group, Day 60
Method: (§2) Two antitumor compounds were formulated for an i.v. dosing regime prepared in the following vehicle: 10% ethanol, 10% Cremophor and 80% isotonic saline. […] Other compounds were formulated similarly.
(§3) The MTDs for the antitumor compounds were calculated from earlier single dose data for mice receiving i.v. administration of these compounds. […] Vehicle control animals were dosed twice intravenously with half the total volume being given separated by one hour. The study was terminated at Day 60.
as §1, with “The results are summarized in Table 1 and include mean days of survival (MDS), number of toxic deaths, number of survivors, number of complete or partial responses, and number with stable disease. The” for “The”, “1.5” for “2.0”
(§4) A tumor scoring system was designed to provide a more quantitative ranking of efficacy (therapeutic potential) among the antitumor agents evaluated against the different human solid tumor xenografts. Each mouse in a study was given a score of from 1 to 10 at the end of the study. The scores can be summarized as follows:
(§5) The individual score for each mouse was averaged into a mean score for each treatment group. […]
The treatment protocol for the H1299 test was identical to the SK-MES test protocol. […]

[3] = test system: SK-MES carcinoma; experiment: In vivo evaluation against SK-MES human lung carcinoma xenograft, i.v. (Example 11)
Method: as §2, §3
as §1, with “The results are summarized in Table 1 and include mean days of survival (MDS), number of toxic deaths, number of survivors, number of complete or partial responses, and number with stable disease. The” for “The”, “1.5” for “2.0”
as §4, §5

[4] = test system: SKMES human lung cancer xenograft; conditions: for Complete Responses / Partial Responses / Stable Disease / Toxic Deaths / MDS (n) / % Total Response / Survivors: 6 mice/group, study end Day 62; for MDS (n): days until tumor reached 2.0 g; for MDS: 2.0 g cut-off; for 62-day survivors: 6 mice
Method: Female Nu/Nu mice (6-8 weeks of age; implanted with 1 mm^3 SKMES lung carcinoma fragments in the flank) were sorted into treatment groups of six mice each. […] Treatment was administered as a single bolus on Day 1, and the study was terminated on Day 62.
as §1, with “which a SKMES neoplasm reached” for “which a neoplasm reached”

[5] = test system: MX-1 Human Breast Carcinoma Xenograft; conditions: 6 mice/group, study end Day 60
Method: The antitumor compounds were prepared in the following vehicle: 5% ethanol, 5% Cremophor and 90% isotonic saline.
Female Nu/Nu mice (12-13 weeks of age; implanted with 1 mm^3 MX-1 human breast carcinoma fragments in the flank) were sorted into treatment groups of six mice each (MX-1 tumor size ranges and group mean MX-1 tumor size ranges were 56-138 mg and 68-74 mg, respectively). […] All treatments were administered as a single oral bolus on Day 1, and the study was terminated on Day 60.
as §1, with “which an MX-1” for “which a”, “of 1.5” for “of 2.0”

[6] = test system: HCT116 Human Colon Carcinoma Xenograft; conditions: HCT116, i.v. Day 1 (Taxol 36 mg/kg split dose, 1393 73 mg/kg single dose)
[7] = oral 36.5 mg/kg on Days 1, 15, 29 and 43 (q14dx3, cumulative 109.5 mg/kg)
[8] = oral 73 mg/kg on Day 1, then 21.9 mg/kg on Days 11, 21, 31 and 41 (cumulative 160.6 mg/kg)
[9] = i.v. split dose qd x 1 at MTD (Taxol 36 mg/kg, 1393 72.1 mg/kg), 6 mice/group, Day 60
[10] = 5.2 mg/kg single IV bolus Day 1
[11] = 5.2 mg/kg single oral bolus Day 1
[12] = 10.4 mg/kg single IV bolus Day 1
[13] = 10.4 mg/kg single oral bolus Day 1
[14] = 20.8 mg/kg single IV bolus Day 1
[15] = 20.8 mg/kg single oral bolus Day 1
[16] = 42 mg/kg single oral bolus Day 1
[17] = 73 mg/kg single oral bolus Day 1
[18] = 104 mg/kg single IV bolus Day 1
[19] = 104 mg/kg single oral bolus Day 1
[20] = 73.4 mg/kg single oral bolus Day 1
[21] = 105 mg/kg single oral bolus Day 1

CCC(=O)O[C@H]1C[C@H]2OC[C@@]2(OC(C)=O)[C@H]2[C@H](OC(=O)c3ccccc3)[C@]3(O)C[C@H](OC(=O)[C@H](O)[C@@H](NC(=O)OC(C)(C)C)c4ccco4)C(C)=C([C@@H](O)C(=O)[C@]12C)C3(C)C [Compound 1393, 3'-Desphenyl-3'-(2-furyl)-7-propionyl taxotere]
Complete Response ([1]; 104 mg/kg single oral bolus): 9
Partial Response ([1]; 104 mg/kg single oral bolus): 0
Stable Disease ([1]; 104 mg/kg single oral bolus): 0
Toxic Deaths ([1]; 104 mg/kg single oral bolus): 0
Complete Response [1, 7]: 0
Partial Response [1, 7]: 1
Stable Disease [1, 7]: 3
Toxic Deaths [1, 7]: 0
Complete Response [1, 8]: 8
Partial Response [1, 8]: 1
Stable Disease [1, 8]: 0
Toxic Deaths [1, 8]: 1
Toxic Deaths [2]: 2
complete response rate ([3]; 1393 72.1 mg/kg i.v.): 100%
days between which complete responses occurred ([3]; 1393 72.1 mg/kg i.v.): 14 to 24 days
Complete Response [3, 9]: 6
Partial Response [3, 9]: 0
Stable Disease [3, 9]: 0
Toxic Deaths [3, 9]: 0
Mean Score ([3]; i.v. split dose qd x 1 at MTD (Taxol 36 mg/kg, 1393 72.1 mg/kg), tumor score 1 to 10 per mouse, group mean): 10+0
Complete Responses [4, 10]: 0
Partial Responses [4, 10]: 0
Stable Disease [4, 10]: 0
Toxic Deaths [4, 10]: 0
MDS (n) [4, 10]: 10.5 ± 0.9 (6) days
% Total Response [4, 11]: 0%
Complete Responses [4, 11]: 0
Partial Responses [4, 11]: 0
Stable Disease [4, 11]: 0
Toxic Deaths [4, 11]: 0
MDS (n) [4, 11]: 9.2 ± 0.8 (6) days
Complete Responses [4, 12]: 0
Partial Responses [4, 12]: 0
Stable Disease [4, 12]: 0
Toxic Deaths [4, 12]: 0
MDS (n) [4, 12]: 16.3 ± 1.3 (6) days
% Total Response [4, 13]: 0%
Complete Responses [4, 13]: 0
Partial Responses [4, 13]: 0
Stable Disease [4, 13]: 0
Toxic Deaths [4, 13]: 0
MDS (n) [4, 13]: 9.1 ± 0.7 (6) days
% Total Response [4, 14]: 0%
Complete Responses [4, 14]: 0
Partial Responses [4, 14]: 0
Stable Disease [4, 14]: 0
Toxic Deaths [4, 14]: 0
MDS (n) [4, 14]: 23.2 ± 1.8 (6) days
% Total Response [4, 15]: 0%
Complete Responses [4, 15]: 0
Partial Responses [4, 15]: 0
Stable Disease [4, 15]: 0
Toxic Deaths [4, 15]: 0
MDS (n) [4, 15]: 9.6 ±0.6 (6) days
% Total Response ([4]; 42 mg/kg single IV bolus Day 1): 66.7%
Complete Responses ([4]; 42 mg/kg single IV bolus Day 1): 3
Partial Responses ([4]; 42 mg/kg single IV bolus Day 1): 1
Stable Disease ([4]; 42 mg/kg single IV bolus Day 1): 0
Toxic Deaths ([4]; 42 mg/kg single IV bolus Day 1): 0
% Total Response [4, 16]: 0%
Complete Responses [4, 16]: 0
Partial Responses [4, 16]: 0
Stable Disease [4, 16]: 0
Toxic Deaths [4, 16]: 0
MDS (n) [4, 16]: 14.5 ± 1.1 (6) days
% Total Response ([4]; 73 mg/kg single IV bolus Day 1): 100%
Complete Responses ([4]; 73 mg/kg single IV bolus Day 1): 3
Partial Responses ([4]; 73 mg/kg single IV bolus Day 1): 3
Stable Disease ([4]; 73 mg/kg single IV bolus Day 1): 0
Toxic Deaths ([4]; 73 mg/kg single IV bolus Day 1): 0
% Total Response [4, 17]: 40%
Complete Responses [4, 17]: 2
Partial Responses [4, 17]: 0
Stable Disease [4, 17]: 0
Toxic Deaths [4, 17]: 1
MDS (n) [4, 17]: 36.3 ±1.5 (3) days
% Total Response [4, 18]: 100%
Complete Responses [4, 18]: 5
Partial Responses [4, 18]: 1
Stable Disease [4, 18]: 0
Toxic Deaths [4, 18]: 0
% Total Response [4, 19]: 83.3%
Complete Responses [4, 19]: 4
Partial Responses [4, 19]: 1
Stable Disease [4, 19]: 0
Toxic Deaths [4, 19]: 0
activity ([4]; SKMES, 1393 orally, lower doses (20.8, 10.4, 5.2 mg/kg)): not active
MDS ([4]; SKMES, 1393 single IV bolus 10.4 mg/kg (Group 7)): 16.3 days
MDS ([4]; SKMES, 1393 single IV bolus 20.8 mg/kg (Group 6)): 23.2 days
Complete Responses [5, 20]: 4
Partial Responses [5, 20]: 0
Stable Disease [5, 20]: 1
Toxic Deaths [5, 20]: 1
Complete Responses [5, 21]: 5
Partial Responses [5, 21]: 0
Stable Disease [5, 21]: 0
Toxic Deaths [5, 21]: 0
Partial Response ([6]; 5 mice/group, Day 60): 4
Stable Disease ([6]; 5 mice/group, Day 60): 0
Mean Score ([6]; tumor score 1 to 10, group mean): 9.2 ± 0.2

CCC(=O)OC1CC2OCC2(OC(C)=O)C2C(OC(=O)c3ccccc3)C3(O)CC(OC(=O)C(O)C(NC(=O)OC(C)(C)C)c4ccco4)C(C)=C(C(O)C(=O)C12C)C3(C)C (centres unmarked) [Compound 1393, 3'-Desphenyl-3'-(2-furyl)-7-propionyl taxotere]
Survivors ([1]; 104 mg/kg single oral bolus): 9
Survivors [1, 7]: 4
Survivors [1, 8]: 9
Survivors [2]: 4
Complete Response [3, 9]: six
Survivors [4, 10]: 0
Survivors [4, 11]: 0
Survivors [4, 12]: 0
Survivors [4, 13]: 0
Survivors [4, 14]: 0
Survivors [4, 15]: 0
Survivors ([4]; 42 mg/kg single IV bolus Day 1): 4
Survivors [4, 16]: 0
Survivors ([4]; 73 mg/kg single IV bolus Day 1): 6
Survivors [4, 17]: 2
Survivors [4, 18]: 6
Survivors [4, 19]: 5
62-day survivors ([4]; SKMES, 1393 single IV bolus 42 mg/kg (Group 5)): four
62-day survivors ([4]; SKMES, 1393 single IV bolus 73 mg/kg (Group 4)): six
62-day survivors ([4]; SKMES, 1393 single IV bolus 104 mg/kg (Group 3)): six
62-day survivors ([4]; SKMES, 1393 single oral bolus 72.8 mg/kg (Group 12)): two
62-day survivors ([4]; SKMES, 1393 single oral bolus 104 mg/kg (Group 11)): Five
Survivors [5, 20]: 5
Survivors [5, 21]: 5
Survivors ([6]; 5 mice/group, Day 60): 5
